# Experimental data from patent EP4345091A1, “BENZOIC ACID DERIVATIVES, METHODS AND USES THEREOF” (priority 2022, dated 2024).
# Like-named read-outs stand apart in the source and are kept apart here.
# Key:
# [1] = tested on: Mycobacterium tuberculosis H37Rv; assay: MIC and MBC by broth microdilution against M. tuberculosis H37Rv; assay type: cell-based, Mycobacterium tuberculosis H37Rv (ATCC 27294); details: Mycobacterium tuberculosis, H37RV
# [2] = Cytotoxicity assay in THP-1 cells; assay type: cell-based, human; details: human, THP-1 cells, read-out: LC50 (the source's name)
# Source text: (§1) Cytotoxicity results were obtained through lethal concentration for 50% of the cell population, LC50. Table 6. Results obtained from cytotoxicity assays for the esters, represented by LD50 in µg/mL and comparison with MIC values, in µg/mL with toxicity/activity (T/A) index.
# (§2) The T/A index quantitatively is the ratio between the lethal concentration (LC50) given by the minimum inhibitory concentration (MIC).
# [3] = tested on: human monocytic cell line THP-1 (ATCC56 TIB202); assay: Cytotoxicity assay in THP-1 cells; assay type: cell-based; details: toxicity/activity index: ratio LC50 (THP-1) / MIC (M. tuberculosis H37Rv)
# Source text: as §1, §2
# [4] = Chemical stability in phosphate buffer pH 7.4
# Description: Chemical hydrolysis was evaluated in phosphate buffer at physiological pH (7.4) to determine its influence in enzymatic studies.
# 1176 µL pH 7.4 phosphate buffer or pH 5.9 phosphate buffer, 18 µL ACN and 6 µL of a 10-1 M stock solution of the prodrug in ACN were mixed in a 2mL vial. The solution was incubated at 37 °C and 50 µL aliquots were removed, mixed with 450 µL of ACN: H2O 1:1. The solution was analysed by HPLC, the remaining substrate and the correspondent acid were both measured.
# The eluant was a mixture of acetonitrile (60%/70%) and aqueous phosphate buffer with 5% of KH2PO4/H3PO4 0.025M (40%/30%). The flow rate was always 1 mL/1 min and wavelength was set at 230 nm. All quantifications were evaluated using calibration curves from stock solutions.
# The initial substrate concentration was 5 x 10^-4 M in all stability assays. All incubations were carried out at pH 7.4 and 37 °C under agitation using the phosphate buffer described above as diluting agent. […] Acetonitrile (2%) was used in all studies to ensure adequate solubilization of the substrates.
# [5] = Stability in human plasma (enzymatic hydrolysis)
# Description: The studies of stability in human plasma were performed in human plasma diluted to 80% with phosphate buffer pH 7.4 of total concentration 0.05 M and ionic strength 0.15 M at 37°C. […] Study of enzymatic hydrolysis. […] Initial substrate concentration (ester) - 5×10^-4M with 2% ACN.
# Pooled human plasma (960 µL), pH 7.4 phosphate buffered saline (216 µL), 18 µL ACN and 6 µL of a 10-1 M stock solution of the prodrug in ACN were mixed in a 2mL vial. The suspensions were incubated at 37 °C and 50 µL aliquots were removed, mixed with 450 µL of ACN: ZnSO4 1% 1:1 and centrifuged. The supernatant was removed and analysed by HPLC, the remaining substrate and the correspondent acid measured.
# Two HPLC systems were used. The buffer and plasma stability studies were performed in an HPLC system with a photodiode detector L-3000 Photo Diode Array Detector, Merck-Hitachi L-6000 pump, Merck-Hitachi D-2500 integrator, and Merck RP-8 column. […] The eluant was a mixture of acetonitrile (60%/70%) and aqueous phosphate buffer with 5% of KH2PO4/H3PO4 0.025M (40%/30%). The flow rate was always 1 mL/1 min and wavelength was set at 230 nm. All quantifications were evaluated using calibration curves from stock solutions.
# The initial substrate concentration was 5 x 10^-4 M in all stability assays. All incubations were carried out at pH 7.4 and 37 °C under agitation using the phosphate buffer described above as diluting agent. […] Acetonitrile (2%) was used in all studies to ensure adequate solubilization of the substrates. The benzoates were added from 10 to 1M acetonitrile stock solutions. After incubation, aliquots of 50 µL were taken into vials containing 450 µL of a 1:1 solution of 1% zinc sulfate and acetonitrile, mixed in a vortex and centrifuged for 10 min at 15,000 rpm. The supernatant was then injected into the HPLC and analysed for quantification of benzoic acid and remaining benzoate. All quantifications were performed using calibration curves.
# [6] = tested on: Mycobacterium smegmatis homogenate; assay: Stability in Mycobacterium smegmatis homogenate (enzymatic hydrolysis); details: Mycobacterium smegmatis homogenate, 37°C
# [7] = as above; details: pH 7.4; for half-life: Mycobacterium smegmatis
# [8] = tested on: Mycobacterium Bovis BCG infecting human macrophages THP-1; assay type: cell-based; details: compound concentration 2 µg/ml
# [9] = M. tuberculosis H37Rv, Table 3, read-out: MBC
# [10] = M. tuberculosis H37Rv, Tables 3, 6 and 7, read-out: MIC
# [11] = THP-1 monocytic cells, lethal concentration for 50% of the cell population
SMILES,"MBC [1, 9] [µg/mL]","MIC [1, 10] [µg/mL]","CC50 [2, 11] [µg/mL]",T/A [3],Degradation (%) 24h [4] [%],Degradation (%) 48h [4] [%],Degradation (%) 72h [4] [%],Degradation (%) 168h [4] [%],Degradation (%) 332h [4] [%],Degradation (%) 24h [5] [%],Degradation (%) 48h [5] [%],Degradation (%) 72h [5] [%],Degradation (%) 24h [6] [%],Degradation (%) 48h [6] [%],half-life [7] [h],also measured
"CCCCCCCCCCCCNC(=O)c1cc([N+](=O)[O-])cc(C(F)(F)F)c1 [Compound 8e, N-dodecyl-3-nitro-5-(trifluoromethyl)-benzamide]",0.5,0.5,113,226,0,0,0,0,0,0,0,0,1,3,,
"CCCCCCOC(=O)c1ccccc1 [Compound 1b, Hexyl benzoate]",,,,,,,,,,94,100,100,100,100,0.21 ± 0.01,
"CCCCCCCCNC(=O)c1ccccc1 [Compound 5c, N-octyl-benzamide]",32,32,188,6,0,0,0,0,0,0,0,0,1,2,,
"CCCCOC(=O)c1ccccc1 [Compound 1a, Butyl benzoate]",> 256,> 256,,,0,0,0,1,2,100,100,100,100,100,0.2 ± 0.01,
"CCCCCCCCNC(=O)c1cc([N+](=O)[O-])cc(C(F)(F)F)c1 [Compound 8c, N-octyl-3-nitro-5-(trifluoromethyl)-benzamide]",0.063,0.063,14,222,0,0,0,0,0,0,0,0,5,11,,
"CCCCCCOC(=O)c1cc([N+](=O)[O-])cc(C(F)(F)F)c1 [Compound 4b, Hexyl 3-nitro-5-(trifluoromethyl)benzoate]",1020,1020,639,0.62,,,,,,72,94,98,15,27,105 ± 10,
"CCCCCCCCNC(=O)c1ccc([N+](=O)[O-])cc1 [Compound 6c, N-octyl-4-nitrobenzamide]",256,128,308,2,0,0,0,0,0,0,0,1,3,5,,
"CCCCCCNC(=O)c1ccc([N+](=O)[O-])cc1 [Compound 6b, N-hexyl-4-nitrobenzamide]",64,32,,,,,,,,,,,17,32,87.2 ± 5.8,
"CCCCCCCCCCNC(=O)c1cc([N+](=O)[O-])cc(C(F)(F)F)c1 [Compound 8d, N-decyl-3-nitro-5-(trifluoromethyl)-benzamide]",0.5,0.5,53,106,,,,,,,,,2,3,,
"CCCCCCNC(=O)c1cc([N+](=O)[O-])cc(C(F)(F)F)c1 [Compound 8b, N-hexyl-3-nitro-5-(trifluoromethyl)-benzamide]",≤ 0.5,≤ 0.5,23,46,,,,,,,,,7,14,,
CCCCCCCCCCCCCCOC(=O)c1cc([N+](=O)[O-])cc([N+](=O)[O-])c1 [Compound 3f],,,,,,,,,,23,51,65,3,6,,MBC [1]: > 1020 µg/mL; MIC [1]: 16 µg/mL; CFU x10^4 ([8]; Time 0 days): 9.2 CFUs per mL; CFU x10^4 ([8]; Time 1 day): 12.16 CFUs per mL; CFU x10^4 ([8]; Time 3 days): 13.66 CFUs per mL; CFU x10^4 ([8]; Time 7 days): 7.25 CFUs per mL; CC50 ([2]; n/d (no toxicity at maximum tested dose)): > 512 µg/mL
"CCCCCCCCCCCCOC(=O)c1ccccc1 [Compound 1e, Dodecyl benzoate]",512,256,,,0,0,0,0,0,3,6,9,16,30,91.4 ± 3.1,
CCCCCCOC(=O)c1ccc([N+](=O)[O-])cc1 [Compound 2b],,,,,,,,,,,,,77,94,,"MBC ([1]; M. tuberculosis H37Rv, Table 3): 128 µg/mL; MIC ([1]; M. tuberculosis H37Rv, Tables 3, 6 and 7): 64 µg/mL; half-life at 500 µM ([7]; mycobacterium smegmatis homogenate): 11.5 ± 0.6 h"
"CCCCNC(=O)c1ccc([N+](=O)[O-])cc1 [Compound 6a, N-butyl-4-nitrobenzamide]",256,128,,,0,0,0,0,0,12,23,32,20,35,76.5 ± 5.3,
